Patent US20250129078A1, “ERBB2 INHIBITORS” (Cogent Biosciences, Inc., priority 2023, published 2025)

What was measured:
ErbB2 V777L = ErbB2 V777L (Homo sapiens (Human), UniProt P04626, V777L); assay: ErbB enzyme assay (CisBio HTRF-KinEASE-TK), ErbB2 V777L; format: biochemical
Summary of the method: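 HTRF KinEASE-TK tyrosine-kinase read-out of substrate phosphorylation after a final 1 h at ambient temperature, from the 655/620 nm emission ratio.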

EGFR WT = EGFR WT (Homo sapiens (Human), UniProt P00533); assay: ErbB enzyme assay (CisBio HTRF-KinEASE-TK), EGFR WT; format: biochemical; details: ATP at Km (25 μM), 1 h incubation
EGFR WT, sequence (P00533 25-1210): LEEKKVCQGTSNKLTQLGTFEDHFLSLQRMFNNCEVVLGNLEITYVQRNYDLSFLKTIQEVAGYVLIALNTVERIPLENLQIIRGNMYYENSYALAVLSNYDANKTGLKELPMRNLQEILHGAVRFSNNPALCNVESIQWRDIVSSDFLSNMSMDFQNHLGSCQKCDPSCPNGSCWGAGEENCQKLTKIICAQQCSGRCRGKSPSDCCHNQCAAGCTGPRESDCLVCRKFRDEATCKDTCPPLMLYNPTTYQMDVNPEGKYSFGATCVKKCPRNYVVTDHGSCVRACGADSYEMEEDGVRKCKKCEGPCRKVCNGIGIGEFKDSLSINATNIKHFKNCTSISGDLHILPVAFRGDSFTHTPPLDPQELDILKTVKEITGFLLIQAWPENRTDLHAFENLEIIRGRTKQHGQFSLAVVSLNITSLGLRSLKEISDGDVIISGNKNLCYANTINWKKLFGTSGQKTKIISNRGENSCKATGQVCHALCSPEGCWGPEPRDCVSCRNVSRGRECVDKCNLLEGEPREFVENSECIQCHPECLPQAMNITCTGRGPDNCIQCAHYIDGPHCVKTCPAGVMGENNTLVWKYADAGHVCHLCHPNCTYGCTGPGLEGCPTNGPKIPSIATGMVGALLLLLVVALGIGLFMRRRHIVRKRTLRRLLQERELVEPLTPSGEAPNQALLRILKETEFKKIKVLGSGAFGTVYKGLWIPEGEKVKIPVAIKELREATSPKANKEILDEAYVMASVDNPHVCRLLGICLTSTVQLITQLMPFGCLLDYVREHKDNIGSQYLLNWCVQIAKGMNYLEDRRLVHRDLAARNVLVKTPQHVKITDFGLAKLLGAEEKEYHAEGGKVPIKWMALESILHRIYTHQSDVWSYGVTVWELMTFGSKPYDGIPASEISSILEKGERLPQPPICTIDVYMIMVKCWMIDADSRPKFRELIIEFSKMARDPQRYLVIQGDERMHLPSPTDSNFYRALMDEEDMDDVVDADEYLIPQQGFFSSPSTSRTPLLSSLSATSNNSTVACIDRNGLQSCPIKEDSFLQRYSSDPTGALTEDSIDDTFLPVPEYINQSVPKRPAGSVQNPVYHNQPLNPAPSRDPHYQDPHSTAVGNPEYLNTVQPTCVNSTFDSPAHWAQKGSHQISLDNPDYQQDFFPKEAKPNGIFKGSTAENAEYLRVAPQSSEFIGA
Summary of the method: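 HTRF KinEASE-TK kinase assay, 1 h at ambient temperature with three-fold serial compound dilutions, then 1 h detection with Sa-XL665/TK-Ab-Cryptate. IC50 is the 50 POC point of a 4-parameter logistic fit.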

ErbB2 V777L, sequence (P04626 23-1255 V777L): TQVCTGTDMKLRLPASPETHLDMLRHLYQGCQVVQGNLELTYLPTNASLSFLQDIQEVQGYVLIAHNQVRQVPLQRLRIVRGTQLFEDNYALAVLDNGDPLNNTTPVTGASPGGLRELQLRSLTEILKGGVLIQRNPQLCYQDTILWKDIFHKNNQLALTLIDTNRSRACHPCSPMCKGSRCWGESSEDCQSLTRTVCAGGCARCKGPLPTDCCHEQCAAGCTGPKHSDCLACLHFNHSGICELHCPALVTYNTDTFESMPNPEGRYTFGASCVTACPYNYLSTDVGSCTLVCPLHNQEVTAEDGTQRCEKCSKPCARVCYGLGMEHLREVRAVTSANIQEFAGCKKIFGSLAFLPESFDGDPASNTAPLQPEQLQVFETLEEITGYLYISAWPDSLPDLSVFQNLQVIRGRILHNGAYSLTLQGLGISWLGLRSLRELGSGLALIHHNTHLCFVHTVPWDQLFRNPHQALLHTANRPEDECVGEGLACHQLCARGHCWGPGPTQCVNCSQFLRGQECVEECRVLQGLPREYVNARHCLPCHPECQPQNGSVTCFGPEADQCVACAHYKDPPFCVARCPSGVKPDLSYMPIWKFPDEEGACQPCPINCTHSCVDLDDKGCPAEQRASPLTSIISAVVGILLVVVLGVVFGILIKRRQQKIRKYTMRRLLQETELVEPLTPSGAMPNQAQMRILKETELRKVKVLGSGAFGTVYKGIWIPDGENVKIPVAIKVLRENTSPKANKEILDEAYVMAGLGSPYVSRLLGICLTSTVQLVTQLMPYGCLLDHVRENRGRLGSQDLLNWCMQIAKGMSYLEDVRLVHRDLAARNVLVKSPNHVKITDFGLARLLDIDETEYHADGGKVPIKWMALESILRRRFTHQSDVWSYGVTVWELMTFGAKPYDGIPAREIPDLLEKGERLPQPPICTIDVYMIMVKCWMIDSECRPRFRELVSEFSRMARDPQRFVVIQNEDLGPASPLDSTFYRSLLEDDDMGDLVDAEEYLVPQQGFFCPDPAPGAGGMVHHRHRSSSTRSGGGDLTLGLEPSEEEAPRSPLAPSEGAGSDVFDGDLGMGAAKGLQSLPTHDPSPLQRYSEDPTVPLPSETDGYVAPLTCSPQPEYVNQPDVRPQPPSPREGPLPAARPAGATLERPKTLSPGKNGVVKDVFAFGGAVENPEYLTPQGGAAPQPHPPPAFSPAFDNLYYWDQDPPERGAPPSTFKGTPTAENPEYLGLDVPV

| Compound | IC50 (ErbB2 V777L) | IC50 (EGFR WT) |
| --- | --- | --- |
| C=CC(=O)N1CCN(c2ncc3ncnc(Nc4cc(C)c(Oc5cc(F)c6c(c5)nnn6C)cc4OC)c3n2)C[C@H]1C [Compound 164, (R)-1-(4-(8-((4-((7-fluoro-1-methyl-1H-benzo[d][1,2,3]triazol-5-yl)oxy)-2-methoxy-5-methylphenyl)amino)pyrimido[5,4-d]pyrimidin-2-y1)-2-methylpiperazin-1-yl)prop-2-en-1-one] | 500 to 1000 nM | 500 to 1000 nM |
| C=CC(=O)N1CCCN(c2ncc3ncnc(Nc4ccc(Oc5cc(F)c6c(c5)ncn6C)c(C)c4F)c3n2)CC1 [Compound 112, 1-(4-(8-((2-fluoro-4-((7-fluoro-1-methyl-1H-benzo[d]imidazol-5-yl)oxy)-3-methylphenyl)amino)pyrimido[5,4-d]pyrimidin-2-yl)-1,4-diazepan-1-yl)prop-2-en-1-one] | 50 to 100 nM | < 50 nM |
| C=CC(=O)N1CCN(c2ncc3ncnc(Nc4c(F)cc(Oc5ccc6c(c5)nnn6C)c(F)c4F)c3n2)CC1 [Compound 19, 1-(4-(8-((2,3,6-trifluoro-4-((1-methyl-1H-benzo[d][1,2,3]triazol-5-yl)oxy)phenyl)amino)pyrimido [5,4-d]pyrimidin-2-yl)piperazin-1-yl)prop-2-en-1-one] | 100 to 500 nM | 100 to 500 nM |
| C=CC(=O)N1CCN(c2ccc3ncnc(Nc4ccc(Oc5cc6nnn(C)c6c(F)c5C)c(C)c4)c3n2)C[C@H]1C [Compound 299, (R)-1-(4-(4-((4-((7-fluoro-1,6-dimethyl-1H-benzo[d][1,2,3]triazol-5-yl)oxy)-3-methylphenyl)amino)pyrido[3,2-d]pyrimidin-6-yl)-2-methylpiperazin-1-yl)prop-2-en-1-one] | 100 to 500 nM | ≥ 1000 nM |
| C=CC(=O)N1CCN(c2ncc3ncnc(Nc4cc(C)c(Oc5ccc6c(c5)nnn6C)c(Cl)c4)c3n2)C[C@H]1C [Compound 151, (R)-1-(4-(8-((3-chloro-5-methyl-4-((1-methyl-1H-benzo[d][1,2,3]triazol-5-yl)oxy)phenyl)amino)pyrimido[5,4-d]pyrimidin-2-yl)-2-methylpiperazin-1-yl)prop-2-en-1-one] | 100 to 500 nM | 100 to 500 nM |
| C=CC(=O)N1CCN(c2nc3c(Nc4ccc(Oc5ccc6c(c5)nnn6C)c(C)c4)ncnc3cc2C)CC1 [Compound 374, 1-(4-(7-methyl-4-((3-methyl-4-((1-methyl-H-benzo[d][1,2,3]triazol-5-yl)oxy)phenyl)amino)pyrido[3,2-d]pyrimidin-6-yl)piperazin-1-yl)prop-2-en-1-one] | 100 to 500 nM | 500 to 1000 nM |
| C=CC(=O)N1CCN(c2ccc3ncnc(Nc4ccc(Oc5ccc6c(c5)nnn6C)c(C)c4)c3n2)CC[C@@H]1C [Compound 354, (S)-1-(7-methyl-4-(4-((3-methyl-4-((1-methyl-1H-benzo[d][1,2,3]triazol-5-yl)oxy)phenyl)amino)pyrido[3,2-d]pyrimidin-6-yl)-1,4-diazepan-1-yl)prop-2-en-1-one] | 100 to 500 nM | 500 to 1000 nM |
| C=CC(=O)N1CCN(c2ccc3ncnc(Nc4ccc(Oc5ccc6c(c5)nnn6C)c(C)c4F)c3n2)C[C@@H]1C [Compound 325, (S)-1-(4-(4-((2-fluoro-3-methyl-4-((1-methyl-1H-benzo[d][1,2,3]triazol-5-yl)oxy)phenyl)amino)pyrido[3,2-d]pyrimidin-6-yl)-2-methylpiperazin-1-yl)prop-2-en-1-one] | 100 to 500 nM | 100 to 500 nM |
| C=CC(=O)N1CCN(c2ncc3ncnc(Nc4ccc(Oc5ccc6c(c5)nnn6C)c(OC)c4F)c3n2)CC1 [Compound 45, 1-(4-(8-((2-fluoro-3-methoxy-4-((1-methyl-1H-benzo[d][1,2,3]triazol-5-yl)oxy)phenyl)amino)pyrimido [5,4-d]pyrimidin-2-yl)piperazin-1-yl)prop-2-en-1-one] | 100 to 500 nM | 100 to 500 nM |
| C=CC(=O)NC1CCN(c2ccc3ncnc(Nc4ccc(Oc5ccc6c(c5)nnn6C)c(C)c4)c3n2)CC1 [Compound 304, N-(1-(4-((3-methyl-4-((1-methyl-1H-benzo[d][1,2,3]triazol-5-yl)oxy)phenyl)amino)pyrido[3,2-d]pyrimidin-6-yl)piperidin-4-yl)acrylamide] | 100 to 500 nM | 100 to 500 nM |
| C=CC(=O)N1CCN(c2ncc3ncnc(Nc4ccc(Oc5ccc6c(c5)nnn6C)c(C)c4)c3n2)C[C@@H]1CC [Compound 115, (S)-1-(2-ethyl-4-(8-((3-methyl-4-((1-methyl-1H-benzo[d][1,2,3]triazol-5-yl)oxy)phenyl)amino)pyrimido[5,4-d]pyrimidin-2-yl)piperazin-1-yl)prop-2-en-1-one] | 500 to 1000 nM | ≥ 1000 nM |
| C=CC(=O)N1CCN(c2ncc3ncnc(Nc4ccc(Oc5ccn6nc(C)nc6c5)c(C)c4)c3n2)C[C@H]1C [Compound 139] | 100 to 500 nM | 100 to 500 nM |
| C=CC(=O)N[C@@H]1CCCCN(c2ncc3ncnc(Nc4ccc(Oc5ccc6c(c5)nnn6C)c(C)c4F)c3n2)C1 [Compound 170, (R)-N-(1-(8-((2-fluoro-3-methyl-4-((1-methyl-1H-benzo[d][1,2,3]triazol-5-yl)oxy)phenyl)amino)pyrimido[5,4-d]pyrimidin-2-yl)azepan-3-yl)acrylamide] | 100 to 500 nM | 100 to 500 nM |
| C=CC(=O)N1CCC(c2ccc3ncnc(Nc4ccc(Oc5ccc6c(c5)nnn6C)c(C)c4)c3n2)CC1 [Compound 108, 1-(4-(4-((3-methyl-4-((1-methyl-1H-benzo[d][1,2,3]triazol-5-yl)oxy)phenyl)amino)pyrido[3,2-d]pyrimidin-6-yl)piperidin-1-yl)prop-2-en-1-one] | 100 to 500 nM | 100 to 500 nM |
| C=CC(=O)N1CCN(c2ncc3ncnc(Nc4ccc(Oc5ccc6c(c5)nnn6C)c(C)c4)c3n2)CC[C@@H]1C [Compound 228, (S)-1-(7-methyl-4-(8-((3-methyl-4-((1-methyl-1H-benzo[d][1,2,3]triazol-5-yl)oxy)phenyl)amino)pyrimido[5,4-d]pyrimidin-2-yl)-1,4-diazepan-1-yl)prop-2-en-1-one] | 100 to 500 nM | 500 to 1000 nM |
| C=CC(=O)N1C2CCC1CN(c1ncc3ncnc(Nc4ccc(Oc5cnc6c(c5)ncn6C)c(C)c4)c3n1)C2 [Compound 134, 1-(3-(8-((3-methyl-4-((3-methyl-3H-imidazo[4,5-b]pyridin-6-yl)oxy)phenyl)amino)pyrimido[5,4-d]pyrimidin-2-yl)-3,8-diazabicyclo[3.2.1]octan-8-yl)prop-2-en-1-one] | 50 to 100 nM | 100 to 500 nM |
| C=CC(=O)N[C@H]1CCCCN(c2ncc3ncnc(Nc4ccc(Oc5ccc6c(c5)nnn6C)c(C)c4F)c3n2)C1 [Compound 173, (S)-N-(1-(8-((2-fluoro-3-methyl-4-((1-methyl-1H-benzo[d][1,2,3]triazol-5-yl)oxy)phenyl)amino)pyrimido[5,4-d]pyrimidin-2-yl)azepan-3-yl)acrylamide] | 50 to 100 nM | 100 to 500 nM |
| C=CC(=O)N1CCN(c2ccc3ncnc(Nc4cc(C)c(Oc5ccc6c(c5)nnn6C)cc4OC(F)(F)F)c3n2)C[C@H]1C [Compound 317, (R)-1-(2-methyl-4-(4-((5-methyl-4-((1-methyl-1H-benzo[d][1,2,3]triazol-5-yl)oxy)-2-(trifluoromethoxy)phenyl)amino)py-rido[3,2-d]pyrimidin-6-yl)piperazin-1-yl)prop-2-en-1-one] | 100 to 500 nM | 100 to 500 nM |
| C=CC(=O)N[C@H]1[C@@H]2CC[C@H]1CN(c1ncc3ncnc(Nc4ccc(Oc5ccc6c(c5)nnn6C)c(C)c4)c3n1)C2 [Compound 205, N-((1R,5S,8r)-3-(8-((3-methyl-4-((1-methyl-1H-benzo[d][1,2,3]triazol-5-yl)oxy)phenyl)amino)pyrimido[5,4-d]pyrimidin-2-yl)-3-azabicyclo[3.2.1]octan-8-yl)acrylamide] | ≥ 1000 nM | ≥ 1000 nM |
| C=CC(=O)N[C@H]1CN(c2ccc3ncnc(Nc4ccc(Oc5ccc6c(c5)nnn6C)c(C)c4F)c3n2)CC[C@@H]1F [Compound 296, N-((3S,4S)-4-fluoro-1-(4-((2-fluoro-3-methyl-4-((1-methyl-1H-benzo[d][1,2,3]triazol-5-yl)oxy)phenyl)amino)pyrido[3,2-d]pyrimidin-6-yl)piperidin-3-yl)acrylamide] | 100 to 500 nM | 100 to 500 nM |
| C=CC(=O)N1CCN(c2ncc3ncnc(Nc4ccc(Oc5ccc6c(c5)nnn6C)c(C)c4F)c3n2)C[C@H]1C [Compound 156, (R)-1-(4-(8-((2-fluoro-3-methyl-4-((1-methyl-1H-benzo[d][1,2,3]triazol-5-yl)oxy)phenyl)amino)pyrimido[5,4-d]pyrimidin-2-y1)-2-methylpiperazin-1-yl)prop-2-en-1-one] | 100 to 500 nM | 100 to 500 nM |
| C=CC(=O)N(C)C1CCN(c2ncc3ncnc(Nc4ccc(Oc5ccc6c(c5)nnn6C)c(C)c4F)c3n2)C1 (stereo not drawn) [Compound 9, N-(1-(8-((2-fluoro-3-methyl-4-((1-methyl-1H-benzo[d][1,2,3]triazol-5-yl)oxy)phenyl)amino)pyrimido [5,4-d]pyrimidin-2-yl)pyrrolidin-3-y1)-N-methylacrylamide] | 100 to 500 nM | 500 to 1000 nM |
| C/C=C/C(=O)N1CCN(c2ncc3ncnc(Nc4ccc(Oc5ccc6c(c5)nnn6C)c(C)c4)c3n2)CC1 [Compound 34, (E)-1-(4-(8-((3-methyl-4-((1-methyl-1H-benzo[d][1,2,3]triazol-5-yl)oxy)phenyl)amino)pyrimido [5,4-d]pyrimidin-2-yl)piperazin-1-yl)but-2-en-1-one] | 100 to 500 nM | ≥ 1000 nM |
| C=C(COC)C(=O)N1CC(F)(F)C12CN(c1ncc3ncnc(Nc4ccc(Oc5ccc6c(c5)nnn6C)c(C)c4)c3n1)C2 [Compound 214, 1-(3,3-difluoro-6-(8-((3-methyl-4-((1-methyl-1H-benzo[d][1,2,3]triazol-5-yl)oxy)phenyl)amino)pyrimido [5,4-d]pyrimidin-2-yl)-1,6-diazaspiro[3.3]heptan-1-yl)-2-(methoxymethyl) prop-2-en-1-one] | 100 to 500 nM | 500 to 1000 nM |
